Test results: patent US9862684B2, “Modulation of K2P channels” (The Regents of the University of California, priority 2013, dated 2018)

How the values were obtained:
[1] = molecular target: T1, K2P2.1 (TREK-1)-3G (Mus musculus, UniProt P97438, D309G/I307G); test: Two-electrode voltage clamp, Xenopus oocytes, triple glycine mutant uncoupling Ct; type: cell-based, Murine; conditions: 3G mutant
T1 sequence (P97438 1-426 I307G/D309G): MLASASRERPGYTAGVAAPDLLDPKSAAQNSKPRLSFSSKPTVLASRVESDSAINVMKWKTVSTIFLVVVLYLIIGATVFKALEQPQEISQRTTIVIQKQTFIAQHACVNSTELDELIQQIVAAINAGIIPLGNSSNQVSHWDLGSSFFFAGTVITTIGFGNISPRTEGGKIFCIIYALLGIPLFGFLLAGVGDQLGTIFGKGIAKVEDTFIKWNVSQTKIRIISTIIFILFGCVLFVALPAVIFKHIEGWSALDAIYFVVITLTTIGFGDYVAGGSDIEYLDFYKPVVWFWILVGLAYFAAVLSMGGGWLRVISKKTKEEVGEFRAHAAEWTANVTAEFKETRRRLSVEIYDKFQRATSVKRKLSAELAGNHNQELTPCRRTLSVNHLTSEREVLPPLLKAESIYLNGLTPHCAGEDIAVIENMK
Procedure: (§1) I-V curves were measured by two-electrode voltage clamp of Xenopus oocytes in b, 90 mM [K^+]o. or c-e, 2 mM [K^+]o. […] Data (were measured at 20 mV (90 mM [K^+]o) or 0 mV (2 mM [K^+]o), normalized to basal channel activity, and fitted to the Hill equation. Error bars indicate s.e., n≧6, N≧2.
(§2) Murine K2P channels were cloned into pGEMHE/pMO {Bagriantsev, 2011}, IRES-GFP (Invitrogen), or pYES2-MET25 (high copy 2μ, URA3) {Minor, 1999} for expression in oocytes, HEK-293T cells, and yeast, respectively, using standard molecular biology procedures, and verified by DNA sequencing.
(§3) Two-electrode voltage clamp recordings were performed from defolliculated stage V-VI Xenopus oocytes 24-48 hours after injection with 0.015-6.0 ng cRNA, using microelectrodes (0.3-3.0 MΩ) filled with 3M KCl. Data was acquired using the GeneClamp 500B (MDS Analytical Technologies) amplifier controlled by the pClamp software (Molecular Devices), and digitized at 1 kHz using Digidata 1332A (MDS Analytical Technologies). Recording solutions (mM): 2K (96 NaCl, 2 KCl, 1.8 CaCl2, 2 MgCl2), 90K (90 KCl, 8 NaCl, 1.8 CaCl2, 2 MgCl2), were buffered 5 mM HEPES pH 7.4. For K2P recordings, currents we elicited by a 1 second long ramp from −150 to +50 mV from a holding potential of −80 mV (2K), or −100 to +50 mV from a holding potential of 0 mV (90K). […]

[2] = molecular target: T2, K2P2.1 (TREK-1)-3G (Mus musculus, UniProt P97438, I307G/D309G); test: as above; type: cell-based, Murine; conditions: 3G mutant
T2 sequence (P97438 1-426 I307G/D309G): T1 sequence (P97438 1-426 I307G/D309G)
Procedure: as §1, §2, §3

CC1(C)c2cc(Cl)ccc2N(CCc2nnn[nH]2)c2ccc(Cl)cc21 [ML67-33, 2,7-dichloro-9,9-dimethyl-10-[2-(1H-tetrazol-5-yl)ethyl]acridine]
EC50 [1]: 49.4 ± 0.1 µM | Emax (fold) [2]: 12.9±1.0 fold
